From PMC3497310, “Binding of the Phage Display Derived Peptide CaIX-P1 on Human Colorectal Carcinoma Cells Correlates with the Expression of Carbonic Anhydrase IX” (International Journal of Molecular Sciences, 2012)
Where no end group is shown, it is not given here.

Key:
HCT116 cells [1] = assay type: binding, human; conditions: 48 h
Experimental: (§1) 300,000 and 2,000,000 human colorectal carcinoma HCT116 and pancreatic carcinoma BxPC3 cells were cultivated in 6-well plates for 48 h. RPMI 1640 medium with 1% BSA was used for cell blocking. Thereafter, 1 mL RPMI 1640 medium containing about 1.0 × 10^6 cpm ^125I-labeled peptide (specific activity ~50 GBq/μmol) was added and cell incubation was carried out for various time periods (10-120 min). To characterize the specificity of radioligand binding, co-incubation with unlabeled CaIX-P1 at various concentrations (10^-4 to 10^-9 mol/L) was performed. After incubation the cells were washed with ice cold PBS and lysed with 0.5 mL NaOH 0.3 mol/L. The lysate was collected and the radioactivity was measured with a γ-counter ([…]; Berthold Technologies). Bound radioactivity, representing the amount of peptide accumulation on HCT116 cells, was calculated as percentage applied dose per 10^6 cells. Binding specificity was further determined using octreotide, HBP-1 and VA131 as negative control competitors at the same concentration as CaIX-P1. All binding and competition experiments were performed in serum free medium in order to avoid peptide degradation by serum proteases.

[2] = serum stability; rapid degradation by serum proteases; cited from earlier work
HCT116 cells [3] = test: Fluorescence microscopy of cell labeling; assay type: cell-based, human; conditions: HCT116 cells grown to high density; 1 h at 37 °C; medium without FCS; 100 μL of 10^-4-10^-5 M stock in 1 mL; after fixation
Experimental: Human colorectal carcinoma HCT116 cells were seeded in culture plates (1,000,000–2,000,000 cells/well in 3 mL medium) containing glass coverslips and were allowed to grow for 48 h. The medium was replaced by 900 μL fresh medium (without FCS) and 100 μL 10^−4–10^−5 M sterilized stock solution of FITC-labeled-CaIX-P1 or fluorescein at the same concentration was added to the cells. The plates were incubated for 1 h at 37 °C. After incubation the cells were washed thrice with 1 mL ice cold PBS (pH 7.4). Subsequently the cells were fixed with 2% formaldehyde in PBS (pH 7.4) at […] for 20 min. This procedure was performed on ice. The cells were washed with ice cold PBS (1 × 600 μL, pH 7.4) and the cover slips were mounted on a slice with DAKO fluorescent medium. Cells were photographed using a Leica DM-RA2 fluorescence microscope. Digitalized figures were processed using standard imaging software (Adobe Photoshop 6.0/Illustrator 9.0).

HCT116 cells [4] = test: In vitro binding kinetics of 125I-CaIX-P1 at two cell densities; parameters: species or system human; conditions: 300,000 vs 2,000,000 cells cultivated 48 h; incubation 10-120 min; serum free medium; uptake as percent applied dose per 10^6 cells; p < 0.05
Experimental: as §1

BxPC3 cells = test: In vitro binding kinetics of 125I-CaIX-P1 at two cell densities (negative control cells); parameters: species or system human; conditions: 300,000 vs 2,000,000 cells cultivated 48 h, incubation 10-120 min, serum free medium
Experimental: as §1

YNTNHVPLSPKY [CaIX-P1]
IC50 (HCT116 cells [1]): 1000 to 5000 nM
half-life in serum [2]: about 25 min

O=C1OC2(c3ccc(O)cc3Oc3cc(O)ccc32)c2ccccc21 [fluorescein]
fluorescence signal of cells (HCT116 cells [3]): strongly decreased signal to the background level

YNTNHVPLSPKY [^125I-CaIX-P1, CaIX-P1 radiolabeled with 125I using the chloramine T method]
binding of 125I-CaIX-P1 per 10^6 HCT116 cells with increasing cell density (HCT116 cells [4]): significantly increased binding
binding of 125I-CaIX-P1 on BxPC3 cells at different cell densities (BxPC3 cells): strongly decreased binding to the background level
